The source of these data is PubChem BioAssay AID1645866 (Buhrlage Lab, Dana-Farber Cancer Institute and Novartis …, 2021).

The assay concerns the target Ubiquitin carboxyl-terminal hydrolase 28 (Homo sapiens) (UniProt Q96RU2). Kind of assay: Ubiquitin-specific peptidase 28 DUB inhibitors, biochemical concentration-dependence assay, validation of primary screening hits (AID 1645866). To be noted: purified USP28, ubiquitin-rhodamine fluorescence, 30 min.

The source made the active and inactive calls.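 Rule for the calls: active = in confirmatory dose-response testing, peak deubiquitinase inhibition of 30% or more; inactive = the rest.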 A value given as a limit tells only on which side of the number the result lay.

Ubiquitin carboxyl-terminal hydrolase 28 (Homo sapiens), sequence (Q96RU2 whole entry, looked up): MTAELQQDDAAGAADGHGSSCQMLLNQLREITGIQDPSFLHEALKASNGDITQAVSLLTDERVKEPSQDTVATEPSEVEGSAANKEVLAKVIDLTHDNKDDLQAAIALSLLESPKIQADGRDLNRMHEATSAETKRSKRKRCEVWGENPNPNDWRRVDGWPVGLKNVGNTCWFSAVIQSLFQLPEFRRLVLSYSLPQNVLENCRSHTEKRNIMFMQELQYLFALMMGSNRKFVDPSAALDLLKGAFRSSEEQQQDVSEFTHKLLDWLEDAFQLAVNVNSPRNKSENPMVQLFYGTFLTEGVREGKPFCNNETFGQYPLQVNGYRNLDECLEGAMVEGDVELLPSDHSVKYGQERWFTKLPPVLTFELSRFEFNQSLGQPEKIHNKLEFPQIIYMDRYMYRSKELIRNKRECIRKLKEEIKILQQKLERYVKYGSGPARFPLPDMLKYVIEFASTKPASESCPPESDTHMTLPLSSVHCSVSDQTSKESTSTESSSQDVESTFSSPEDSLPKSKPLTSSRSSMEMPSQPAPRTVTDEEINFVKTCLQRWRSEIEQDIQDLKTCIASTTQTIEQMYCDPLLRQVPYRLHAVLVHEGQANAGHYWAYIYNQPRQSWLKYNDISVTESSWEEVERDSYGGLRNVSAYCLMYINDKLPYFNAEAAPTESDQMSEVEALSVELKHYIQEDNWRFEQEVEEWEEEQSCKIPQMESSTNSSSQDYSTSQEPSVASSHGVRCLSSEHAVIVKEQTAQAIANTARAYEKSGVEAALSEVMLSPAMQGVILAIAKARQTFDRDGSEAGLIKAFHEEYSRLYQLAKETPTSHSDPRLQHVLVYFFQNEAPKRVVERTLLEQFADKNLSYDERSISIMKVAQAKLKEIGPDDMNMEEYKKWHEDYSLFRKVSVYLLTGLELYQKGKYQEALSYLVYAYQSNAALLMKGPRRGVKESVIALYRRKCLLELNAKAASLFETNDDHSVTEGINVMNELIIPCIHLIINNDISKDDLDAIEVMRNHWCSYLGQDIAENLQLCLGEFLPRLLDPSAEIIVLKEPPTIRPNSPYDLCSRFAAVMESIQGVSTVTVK

The term IC50 denotes the concentration at which inhibition is half-maximal. As to `O=C(NCc1ccc2c(c1)OCO2)c1nc(-c2ccccc2)n(-c2ccccc2)n1`, the IC50 was > 50 µM (inactive).
Consider `O=C(Cn1c(=O)c2sccc2n(Cc2ccc([N+](=O)[O-])cc2)c1=O)NCCc1ccccc1`, for which the IC50 was 19.5 µM.
Consider `COc1ccc(Cl)cc1N1C(=O)[C@H]2[C@@H](C1=O)[C@]1(C(=O)Nc3c(C)cc(C)cc31)N1CCC[C@@H]21`, for which the IC50 is > 50 µM (inactive).
To `Cc1ccccc1C(=O)OCCN1C(=O)c2cccc3c(N4CCOCC4)ccc(c23)C1=O` belongs > 50 µM (inactive); to `O=C(NCc1cccnc1)c1cnn2c(C(F)(F)F)cc(-c3ccccc3)nc12`, > 50 µM (inactive).
On to `CN1CC2CN(C(=O)c3ccc(F)cc3)CCN2Cc2ccccc21` (stereo not drawn), for which the IC50 was > 50 µM (inactive).
As for `CC1CCc2c(sc3ncnc(NC4CCN(CC(N)=O)CC4)c23)C1` (stereo not drawn), the IC50 is > 50 µM (inactive).
Regarding `COc1ccc(-c2cc(-c3nnc4n3CCCCC4)n(-c3ccccc3)n2)cc1`, the IC50 was 20.1 µM.
With `O=C(Nc1ccc2c(c1)OCCO2)c1cc(CN2CCOCC2)on1`, the IC50 is 11.9 µM.
As for `CC1CC(=O)Nc2ccccc2N1S(=O)(=O)c1ccc(C#N)cc1` (stereo not drawn), the IC50 was 33.1 µM.
Consider `O=C(Nc1cccc(Cl)c1)N1CCN(c2cc(C(F)(F)F)ccn2)CC1`, for which the IC50 is 25.1 µM.
On to `CN(C)c1ccc(/C=N/NC(=O)c2ccc(Cl)cc2)cc1`, for which the IC50 was 16.7 µM.
With `COc1ccc(-c2cc(-c3ccccc3)nc(SCC(N)=O)c2C#N)cc1OC`, the concentration for half-maximal inhibition (IC50) is 1.97 µM.
Take `O=C(NC1(O)C(=O)c2ccccc2C1=O)c1cccc2c1-c1ccccc1C2=O`: the IC50 is 32.6 µM.
As to `CC1=C(C)C(c2c(-c3ccc(C)cc3)[nH]c3ccccc23)N(C(C)(C)C)C1=O` (stereo not drawn), the IC50 is 2.25 µM.
Take `c1ccc(Cc2nn3c(-c4cccnc4)nnc3c3ccccc23)cc1`: the IC50 was 2.53 µM.
Regarding `CCC(=O)Nc1cccnc1-c1ccc(C(=O)Nc2cccc(OC)c2)cc1`, the IC50 was 14.5 µM.
Consider `Cc1c(-c2nc(-c3ccccc3Cl)no2)nnn1-c1cccc(F)c1`, for which the IC50 was 14.2 µM.
For `COc1ccc(CNC(=O)c2ccccc2N2C(=O)N3CCc4c([nH]c5ccccc45)[C@@]3(C)C2=O)cc1` the value was 37.4 µM; for `O=C(Nc1nc2ccccc2s1)c1ccc2c(c1)C(=O)N(Cc1cccnc1)C2=O`, 1.93 µM.
To `Cc1cc(C)n(-c2ccc(C(=O)NCc3ccc(F)cc3)cn2)n1` belongs 19.7 µM; to `O=C1CC(C(=O)Nc2ccc(F)cc2)n2nc(SCc3ccccc3)nc2N1` (stereo not drawn), 29.3 µM.
`Cc1cc(/C=C2/C(=N)N3C(c4ccccc4)=CSC3=NC2=O)c(C)n1-c1ccc(F)cc1`: the IC50 was > 50 µM (inactive).
Take `O=C(NCCc1ccccc1F)c1cn2cc(Cl)ccc2n1`: the IC50 was 31.8 µM.
`O=C1/C(=C/c2cn(-c3ccccc3)nc2-c2ccc3c(c2)OCCO3)Cc2ccccc21`: the IC50 is > 50 µM (inactive).
For `COc1ccc(NC(=O)CNC(=O)c2ccc3nc(-n4cccc4)sc3c2)cc1` the value was 3.11 µM; for `COc1ccc(OCCn2c(C3CC(=O)N(c4cccc(C)c4)C3)nc3ccccc32)cc1` (stereo not drawn), 1.57 µM; for `COc1cccc2c1OCC(NS(=O)(=O)c1cc(C)ccc1C)C2` (stereo not drawn), > 50 µM (inactive).
Turning to `COc1ccc(Cl)cc1-n1nnc(C(=O)N2CCc3ccccc3C2)c1C`, the IC50 was > 50 µM (inactive).
For `O=C(/C=C/C=C/C=C/C1CCCCC1)NC1=C[C@@](O)(/C=C/C=C/C=C/C(=O)NC2=C(O)CCC2=O)[C@@H]2O[C@@H]2C1=O` the value was 3.62 µM; for `O=S(=O)(c1cccc2cccnc12)N(CCc1ccccc1)C1CCN(CCc2ccc(Cl)cc2)CC1`, > 50 µM (inactive).
To `COc1ccc(CCNC(=O)CCn2c(=O)c3ccccc3n(Cc3ccc(C)cc3)c2=O)cc1OC` belongs 22 µM; to `COc1cc(C)c2c(=O)c3c(oc2c1)C(=O)c1c(O)c(OC)cc(O)c1C3=O`, 1.56 µM.
With `O=C(Nc1ccc2c(c1)OCCO2)c1ccc(N2CCCCC2)nn1`, the IC50 was 31.6 µM.
For `CN(C)c1ccc(C2CC(c3c(O)n(C)c(=O)[nH]c3=O)=Nc3ccccc3S2)cc1` (stereo not drawn) the value was 2.12 µM.
As to `COc1ccc2c(c1)CCc1c(C(=O)NCc3cccnc3)noc1-2`, the IC50 was 20.3 µM.
As for `CCS(=O)(=O)c1ccccc1C(=O)Nc1ccc2sc(C)nc2c1`, the IC50 is 17.2 µM.
Turning to `CCc1nnc(NC(=O)c2nnn(-c3ccccc3Cl)c2C)s1`, the IC50 was 28.5 µM.
Regarding `CCC(C)c1ccc(-c2csc(Cn3c(CN4CCN(C)CC4)nc4ccccc4c3=O)n2)cc1` (stereo not drawn), the IC50 is 15.3 µM.
For `Cc1ccc(Cc2nc(-c3ccc(=O)[nH]c3)no2)cc1` the value was 0.423 µM; for `COc1cc(O)c2c(=O)c(-c3ccc(O)cc3)coc2c1`, 36.1 µM; for `COc1ccc2nc(-c3ccc(NC(=O)c4cccc(OC)c4OC)cc3)cn2n1`, 2.43 µM.
Regarding `COc1ccc(C(=O)CSc2nnc(-c3cc4cccc(OC)c4o3)n2C)cc1OC`, the IC50 is > 50 µM (inactive).
For `O=c1ccc(-c2noc(-c3ccc4cc[nH]c4c3)n2)c[nH]1` the value was > 50 µM (inactive); for `C/C=C(\Cl)C1=CC(=O)[C@]23C[C@H]2[C@@]2(C)CO[C@@]1(O)[C@@]3(O)O2`, > 50 µM (inactive).
To `CC(=O)Nc1cc(-c2cccc(O)c2)cn2c(-c3cnn(C)c3)cnc12` belongs 5.99 µM.
For the compound `COc1ccccc1-c1ccc(SCC(=O)Nc2ccc3c(c2)OCCO3)nn1`, the IC50 was 2.03 µM.
Turning to `CCCCCC(=O)N1c2ccccc2NC2=C(C(=O)CC(c3ccc(C(C)(C)C)cc3)C2)C1c1ccncc1` (stereo not drawn), the concentration for half-maximal inhibition (IC50) was 11.4 µM.
Consider `CCOc1ccc(NC(=O)c2cc(-c3ccccc3)c(N3CCOCC3)s2)cc1`, for which the IC50 was 14 µM.
Turning to `CC(=O)c1ccccc1NC(=O)COc1ccc(-c2ccc(C#N)cc2)cc1`, the concentration for half-maximal inhibition (IC50) is 4.72 µM.
With `O=C(Nc1ccc(-c2cn3ccsc3n2)cc1)c1ccc(Cl)c([N+](=O)[O-])c1`, the IC50 is 1.53 µM.
Take `CNS(=O)(=O)c1ccc(CNC(=O)c2cc(-c3ccc(C)cc3)no2)cc1`: the IC50 is 21 µM.
As to `COc1ccccc1N1CCN(C(=O)c2ccc3c(c2)N(Cc2cc(C)ccc2C)C(=O)c2ccccc2S3=O)CC1` (stereo not drawn), the IC50 is 29.7 µM.
As for `COc1ccc(-c2ccnc(-c3ccc(OCc4cccc(F)c4)cc3)n2)cc1`, the IC50 is > 50 µM (inactive).
`COc1ccc(NC(=O)C2CC(=O)Nc3c(-c4ccc(Cl)cc4)cnn32)c(OC)c1` (stereo not drawn): the IC50 was 14.5 µM.
Regarding `Cc1ccc(O)c(-c2cc(C(=O)Nc3ccccc3Cl)[nH]n2)c1`, the IC50 was 17.1 µM.
As to `Cc1cc(CSc2ncccc2C(=O)Nc2ccnn2Cc2cccnc2)no1`, the IC50 is > 50 µM (inactive).
As for `Cc1ccc(NC(=O)c2ccc(N3CCOCC3)nn2)cc1F`, the IC50 was 45.6 µM.
On to `Cc1oc2ccc(NS(=O)(=O)c3ccc(F)cc3)cc2c1C(=O)OCc1ccccc1`, for which the IC50 was 9.05 µM.
On to `O=C(Nc1ccc2nccnc2c1)c1cccc(C(F)(F)F)c1`, for which the IC50 is 33.6 µM.
For the compound `Fc1cc(F)c2[nH]cc(-c3nnnn3-c3ccc4ccccc4c3)c2c1`, the IC50 is 22 µM.
For `Cc1ccc2c(c1)-c1c(c(C(=O)N3CCN(c4ccccc4)CC3)nn1C)CS2`, the IC50 is > 50 µM (inactive).
For `O=C(Cn1c(=O)n(Cc2ccccc2)c(=O)c2ncccc21)NCc1ccccc1Cl` the value was 25.9 µM; for `Cc1ccc(CNC(=O)Cn2c(=O)n(-c3ccccc3)c3ncccc32)cc1`, > 50 µM (inactive).
Regarding `O=C(Cn1c(=O)n(Cc2ccco2)c(=O)c2ccc(C(=O)NC3CCCC3)cc21)NCc1ccco1`, the IC50 was 27.5 µM.
Consider `CN(C)S(=O)(=O)N1CCCC2(C1)Nc1cccnc1NC2=NC1CCCC1` (stereo not drawn), for which the IC50 is > 50 µM (inactive).
Regarding `O=C(NCCc1ccccc1)c1nnn(Cc2cccc(Cl)c2)c1-n1cccc1`, the 50% inhibitory concentration (IC50) is 1.37 µM.
To `Cc1ncncc1C(=O)N1CCCC(C)(c2ncc(Cc3cccc(F)c3)o2)C1` (stereo not drawn) belongs > 50 µM (inactive).
Take `Cc1ccc2c(c1)N=C(c1ccc([N+](=O)[O-])cc1)CO2`: the IC50 is > 50 µM (inactive).
In the case of `Cc1ccccc1NC(=O)CNc1nc(Nc2ccccc2)nc(Nc2ccccc2)n1`, the IC50 was 19.1 µM.
On to `COc1ccc(NC(=O)c2sc(N3CCOCC3)nc2-c2ccccc2)c(OC)c1`, for which the IC50 was 17 µM.
As to `COc1ccc(OC)c(CCNC(=O)CCC2=NS(=O)(=O)c3ccc(C(F)(F)F)cc3N2)c1`, the IC50 is 23.6 µM.
In the case of `O=C(Nc1ccc(-c2cn3ccccc3n2)cc1)C1C=C2C=C(Br)C=CC2OC1=O` (stereo not drawn), the concentration for half-maximal inhibition (IC50) is 1.97 µM.
Consider `CCc1nc2c(NC(=O)Nc3cccc(C(=O)OC)c3)cccn2n1`, for which the concentration for half-maximal inhibition (IC50) is 2.91 µM.
In the case of `Cc1cc(O)c(Oc2cc(C)cc(O)c2O)c(O)c1`, the IC50 is 15.1 µM.
As for `COc1cccc2c1OCC(C(=O)NCc1ccc(F)cc1)=C2`, the IC50 is 21.6 µM.
Turning to `CCc1nc(-c2cccc(NC(=O)c3ccc(C#N)cc3F)c2)no1`, the IC50 is 36.2 µM.
For `CN1C(=O)[C@@]23C[C@]4([C@@]56C[C@]78SS[C@](CO)(C(=O)N7[C@@H]5Nc5ccccc56)N(C)C8=O)c5ccccc5N[C@@H]4N2C(=O)[C@]1(CO)SS3` the value was > 50 µM (inactive); for `Cc1ccc(Cl)c(-n2nnc(C(=O)Nc3ccccc3C#N)c2C)c1`, 12 µM.
On to `Cc1sc2nc(CN3CCCC3)nc(NCCc3ccc(Cl)cc3)c2c1C`, for which the IC50 is > 50 µM (inactive).
In the case of `COc1ccc(CNC(=O)CSc2nc3nc(C)ccc3o2)cc1`, the IC50 was 31.3 µM.
Regarding `CCn1cnc2c(-c3ccccc3)cn(CC(=O)NCc3ccc4c(c3)OCO4)c2c1=O`, the half-maximal inhibitory concentration (IC50) is 10.4 µM.
As to `COc1ccc(NC(=O)C2CCCN(S(=O)(=O)N3CCCCCC3)C2)cc1` (stereo not drawn), the IC50 is 21.8 µM.
As for `O=C(COC(=O)c1cc(Cl)ccc1O)Nc1ccc2c(c1)OCCO2`, the IC50 was 24.3 µM.
In the case of `CC(=O)N1CCOc2cc(S(=O)(=O)N3CCCC3c3cc(C)no3)ccc21` (stereo not drawn), the IC50 is 22.9 µM.
`O=C(Nc1cccc(Cl)c1)N1CCC(c2cc(-c3ccco3)n[nH]2)CC1`: the IC50 was 4.68 µM.
Take `CCOc1ccc(-c2noc(-c3nn(-c4cccc(OC)c4)ccc3=O)n2)cc1`: the half-inhibitory concentration (IC50) was 4.44 µM.
As to `Cc1cccc(O)c1-c1nc2c(-c3nc4c(C(=O)O)cccc4o3)cccc2o1`, the IC50 is > 50 µM (inactive).
